In series [1] the target is estrogen receptor beta (ERβ) (Homo sapiens, UniProt Q92731). The conditions noted are these: reference 16; cited from earlier work.
For series [2], the system named is corpus callosum axons of cuprizone-intoxicated mice. Description: Remyelination of corpus callosum after demyelination induced by cuprizone intoxication. The format is in vivo. The conditions noted are these: for remyelination of corpus callosum (myelin basic protein staining, oligodendrocytes): 6 weeks of treatment with subcutaneous silastic implants after 12 weeks of cuprizone intoxication; for promyelinating effect in vivo after demyelination induced by cuprizone intoxication (summary statement): male and female animals; for remyelinating effect in testicular feminized mice: mice devoid of functional androgen receptors due to a gene mutation. The source says: In Figures b, d and f, are shown representative images of immunostaining of mouse corpus callosum with anti-MBP antibody.

For series [3] the following is noted: mouse, in vivo, sc.
Series [4] can be described thus: MENT level in plasma of castrated male mice with subcutaneous silastic implants (radioimmunoassay). The format is in vivo. The following applies: mean of 8 samples, SD 0.87. The source says:
In additional experiments, the level of MENT which was induced in the plasma of castrated male mice based on subcutaneous silastic implants, as determined by radioimmunoassay, and which included a myelin response, was as follows: […]

The subject of series [5] is oligodendrocyte progenitors. Description: Proliferation and maturation of oligodendrocyte progenitors.
In series [6] the test system is organotypic cultures of cerebellar slices.
In series [7] the test system is activated microglial cells in corpus callosum. In words: Microglial responses and astrogliosis after cuprizone intoxication. The following applies: 9 weeks of treatment after 12 weeks of cuprizone intoxication, castrated males.

We go through five compounds from patent US9364488B2, “Myelin regeneration with androgens” (priority 2011, dated 2016).

“Also recorded” adds a separate entry of the source.

Chain of estrogen receptor beta (ERβ) (Q92731 whole entry, species assumed): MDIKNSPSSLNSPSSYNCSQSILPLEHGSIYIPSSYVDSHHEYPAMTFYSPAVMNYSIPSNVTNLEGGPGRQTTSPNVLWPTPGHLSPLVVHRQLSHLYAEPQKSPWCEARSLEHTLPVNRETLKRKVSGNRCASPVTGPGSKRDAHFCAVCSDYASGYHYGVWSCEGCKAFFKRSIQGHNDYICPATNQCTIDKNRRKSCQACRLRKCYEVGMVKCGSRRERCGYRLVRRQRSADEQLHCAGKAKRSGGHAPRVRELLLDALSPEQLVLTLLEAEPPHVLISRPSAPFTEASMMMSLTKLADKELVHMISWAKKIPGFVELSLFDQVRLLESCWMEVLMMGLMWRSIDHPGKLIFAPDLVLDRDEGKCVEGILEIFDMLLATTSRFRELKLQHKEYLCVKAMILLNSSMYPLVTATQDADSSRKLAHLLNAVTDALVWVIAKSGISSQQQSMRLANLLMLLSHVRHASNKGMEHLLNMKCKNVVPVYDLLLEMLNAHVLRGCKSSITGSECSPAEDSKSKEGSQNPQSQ

On to `C[C@]12CC[C@H](O)C[C@@H]1CC[C@@H]1[C@@H]2CC[C@]2(C)[C@@H](O)CC[C@@H]12` [3βAdiol, 5α-androstane-3β,17β-diol], for which the “binding to estrogen receptor beta (ERβ)” value in series [1] is “strongly binds”.
`C[C@]12CCC(=O)C[C@@H]1CC[C@@H]1[C@@H]2CC[C@]2(C)[C@@H](O)CC[C@@H]12` [5α-dihydrotestosterone]: in series [2], the “remyelination of corpus callosum (myelin basic protein staining, oligodendrocytes)” value (“remyelination of corpus callosum” for short) is given as “promotion of remyelination” and the “promyelinating effect in vivo after demyelination induced by cuprizone intoxication (summary statement)” value (“promyelinating effect in vivo” for short) is on record as “mimicked by 5α-dihydrotestosterone”.
As to `C[C@]12CC[C@@H]3c4ccc(O)cc4CC[C@H]3[C@@H]1CC[C@@H]2O` [Estradiol, estradiol], in series [3] (male), the “Brain Level” value worked out at 0.36 ± 0.04 ng/g and the “PLASMA LEVEL” value was 0.39 ± 0.07 ng/mL. Moreover, in series [3], the “levels produced in plasma and brain tissue by the implants” value was “high physiological levels”.
As to `C[C@@H]1CC2=CC(=O)CC[C@@H]2[C@H]2CC[C@]3(C)[C@@H](O)CC[C@H]3[C@@H]21` [MENT], in series [2], the “remyelination of corpus callosum” value is given as “promotion of remyelination” and the “promyelinating effect in vivo” value is given as “also observed”. In addition, the “mean MENT plasma level” value in series [4] amounted to 2.12 ng/mL. Further, the “remyelination after lysolecithin-induced demyelination” value with mouse spinal cord was “can be mimicked by MENT”.
Consider `C[C@]12CC[C@H]3[C@@H](CCC4=CC(=O)CC[C@@]43C)[C@@H]1CC[C@@H]2O` [Testosterone, testosterone], for which the “proliferation and maturation of oligodendrocyte progenitors” value in series [5] was “promotes the proliferation and maturation”. In series [2], the “remyelination of corpus callosum” value is on record as “Strong remyelination”; the “promyelinating effect in vivo” value is on record as “very strong promyelinating effect”; the “remyelinating effect in testicular feminized mice” value is given as “not observed”. In series [2] (aromatase knockout mice, cuprizone model), the “remyelinating effect in aromatase knockout mice” value was “loses its efficiency; also recorded: strongly reduced; also recorded: diminished”. For the same compound, the “remyelinating effect in testicular feminized mice” value in series [2] (listed as testosterone) is reported as “eliminated”. Moreover, in series [2] (silastic implants for 3 to 6 weeks after termination of 12 week cuprizone diet), the “replenishment of corpus callosum fibers by oligodendrocytes” value was “replenished by oligodendrocytes forming new myelin sheaths”. For the same compound, the “promyelinating effect in vitro” value in series [6] was “very strong promyelinating effect”. In addition, the “number of activated microglial cells” value in series [7] is “return to normal levels; also recorded: significantly decreased”.
